Laboratory results published in US10206394B2, “Herbicidal compounds” (Syngenta Participations AG, priority 2014, dated 2019).
Like-named read-outs stand apart in the source and are kept apart here.

Tests used:
Test in all cases: Glasshouse assay for herbicidal activity (pre- and post-emergence), percentage phytotoxicity
Type in all cases: in vivo
[1] = system: Alopecurus myosuroides (ALOMY); details: Alopecurus myosuroides, rate 250 g/ha
Outline: (§1)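 Visual phytotoxicity score, 0% = undamaged to 100% = total kill, read 20 days after treatment for PRE and 15 days for POST. Pots of standard soil; treatment at day 1 (PRE) or roughly day 12 (POST). Glasshouse: 16 h photoperiod, 65% RH, 24/18 or 20/16 °C by climate type.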

Avena fatua (AVEFA) = details: Avena fatua, rate 250 g/ha
Outline: as §1

[2] = system: Echinochloa crus-galli (ECHCG); details: Echinochloa crus-galli, rate 250 g/ha
Outline: as §1

Lolium perenne (LOLPE) = details: Lolium perenne, rate 250 g/ha
Outline: as §1

[3] = post-emergence, 360 h, POST-emergence, visual score 15 DAA (100%=total damage, 0%=no damage), read-out: Post-emergence herbicidal activity (percentage phytotoxicity) ALOMY POST
[4] = pre-emergence, 480 h, PRE-emergence, visual score 20 DAA (100%=total damage, 0%=no damage), read-out: Pre-emergence herbicidal activity (percentage phytotoxicity) ALOMY PRE
[5] = post-emergence, 360 h, POST-emergence, visual score 15 DAA (100%=total damage, 0%=no damage), read-out: Post-emergence herbicidal activity (percentage phytotoxicity) AVEFA POST
[6] = pre-emergence, 480 h, PRE-emergence, visual score 20 DAA (100%=total damage, 0%=no damage), read-out: Pre-emergence herbicidal activity (percentage phytotoxicity) AVEFA PRE
[7] = post-emergence, 360 h, POST-emergence, visual score 15 DAA (100%=total damage, 0%=no damage), read-out: Post-emergence herbicidal activity (percentage phytotoxicity) ECHCG POST
[8] = pre-emergence, 480 h, PRE-emergence, visual score 20 DAA (100%=total damage, 0%=no damage), read-out: Pre-emergence herbicidal activity (percentage phytotoxicity) ECHCG PRE
[9] = post-emergence, 360 h, POST-emergence, visual score 15 DAA (100%=total damage, 0%=no damage), read-out: Post-emergence herbicidal activity (percentage phytotoxicity) LOLPE POST
[10] = pre-emergence, 480 h, PRE-emergence, visual score 20 DAA (100%=total damage, 0%=no damage), read-out: Pre-emergence herbicidal activity (percentage phytotoxicity) LOLPE PRE

| SMILES | pest or weed control at 250 g/ha [1, 3] | pest or weed control at 250 g/ha [1, 4] | pest or weed control at 250 g/ha (Avena fatua (AVEFA); [5]) | pest or weed control at 250 g/ha (Avena fatua (AVEFA); [6]) | pest or weed control at 250 g/ha [2, 7] | pest or weed control at 250 g/ha [2, 8] | pest or weed control at 250 g/ha (Lolium perenne (LOLPE); [9]) | pest or weed control at 250 g/ha (Lolium perenne (LOLPE); [10]) |
| --- | --- | --- | --- | --- | --- | --- | --- | --- |
| C/C=C/c1cc(C)c(C2C(=O)CC(CC(=O)NCc3cccc(Cl)c3)C2=O)c(CC)c1 (stereo not drawn) [Compound B187] | 70% | 70% | 70% | 10% | 100% | 80% | 90% | 80% |
| C/C=C/c1cc(C)c(C2C(=O)CC(CC(=O)NCc3cccc(F)c3)C2=O)c(CC)c1 (stereo not drawn) [Compound B188] | 80% | 60% | 100% | 40% | 100% | 80% | 90% | 80% |
| C/C=C/c1cc(C)c(C2C(=O)CC(CC(=O)NCc3ccc(OC)cc3)C2=O)c(CC)c1 (stereo not drawn) [Compound B189] | 90% | 60% | 90% | 40% | 100% | 80% | 90% | 80% |
| C/C=C/c1cc(C)c(C2C(=O)CC(CC(=O)NCc3ccccc3)C2=O)c(CC)c1 (stereo not drawn) [Compound B190] | 70% | 60% | 90% | 40% | 100% | 80% | 80% | 70% |
| C/C=C/c1cc(C)c(C2C(=O)CC(CC(=O)NCc3ccc(C#N)cc3)C2=O)c(CC)c1 (stereo not drawn) [Compound B191] | 50% | 60% | 90% | 40% | 100% | 80% | 90% | 70% |
| C/C=C/c1cc(C)c(C2C(=O)CC(CC(=O)NC(C)C)C2=O)c(CC)c1 (stereo not drawn) [Compound B192] | 100% | 100% | 100% | 90% | 100% | 100% | 100% | 100% |
| C=CCNC(=O)CC1CC(=O)C(c2c(C)cc(/C=C/C)cc2CC)C1=O (stereo not drawn) [Compound B193] | 100% | 100% | 100% | 90% | 100% | 100% | 100% | 100% |
| C/C=C/c1cc(C)c(C2C(=O)CC(CC(=O)N(C)CC)C2=O)c(CC)c1 (stereo not drawn) [Compound B194] | 100% | 100% | 100% | 80% | 100% | 90% | 100% | 100% |
| C#CCN(C)C(=O)CC1CC(=O)C(c2c(C)cc(/C=C/C)cc2CC)C1=O (stereo not drawn) [Compound B195] | 100% | 90% | 100% | 80% | 100% | 100% | 100% | 100% |
| C/C=C/c1cc(C)c(C2C(=O)CC(CC(=O)NCC3CC3)C2=O)c(CC)c1 (stereo not drawn) [Compound B196] | 100% | 100% | 100% | 80% | 100% | 100% | 100% | 100% |
| Cc1cc(-c2ncc(Cl)cc2F)cc(C)c1C1C(=O)CC(CC(=O)NCC2CC2(F)F)C1=O (stereo not drawn) [Compound B197] | 100% | 100% | 100% | 90% | 100% | 100% | 100% | 90% |
| Cc1cc(Br)cc(C)c1C1C(=O)CC(CC(=O)NCC2CC2(F)F)C1=O (stereo not drawn) [Compound B198] | 100% | 90% | 100% | 60% | 100% | 80% | 100% | 70% |
| Cc1cc(-c2ncc(F)cc2F)cc(C)c1C1C(=O)CC(CC(=O)NCc2ccc(C#N)cc2)C1=O (stereo not drawn) [Compound B199] | 100% | 80% | 100% | 60% | 100% | 50% | 90% | 70% |
| C=C(C)CNC(=O)CC1CC(=O)C(c2c(C)cc(-c3ncc(F)cc3F)cc2C)C1=O (stereo not drawn) [Compound B200] | 100% | 100% | 100% | 90% | 100% | 100% | 100% | 100% |
| CCNC(=O)CC1CC(=O)C(c2c(C)cc(-c3ncc(F)cc3F)cc2C)C1=O (stereo not drawn) [Compound B201] | 100% | 100% | 100% | 100% | 100% | 100% | 100% | 100% |
| Cc1cc(-c2ncc(F)cc2F)cc(C)c1C1C(=O)CC(CC(=O)NCc2ccc(C#N)cn2)C1=O (stereo not drawn) [Compound B202] | 90% | 80% | 80% | 70% | 90% | 70% | 70% | 60% |
| Cc1cc(-c2ncc(F)cc2F)cc(C)c1C1C(=O)CC(CC(=O)NC(C)C)C1=O (stereo not drawn) [Compound B203] | 100% | 100% | 100% | 100% | 100% | 100% | 100% | 100% |
| Cc1cc(OCC(F)(F)F)cc(C)c1C1C(=O)CC(CC(=O)NCc2cccc(Cl)c2)C1=O (stereo not drawn) [Compound B204] | 100% | 90% | 100% | 80% | 100% | 90% | 90% | 90% |
| Cc1cc(OCC(F)(F)F)cc(C)c1C1C(=O)CC(CC(=O)NCc2cccc(F)c2)C1=O (stereo not drawn) [Compound B205] | 100% | 100% | 90% | 80% | 90% | 90% | 90% | 90% |
| COc1ccc(CNC(=O)CC2CC(=O)C(c3c(C)cc(OCC(F)(F)F)cc3C)C2=O)cc1 (stereo not drawn) [Compound B206] | 90% | 80% | 90% | 70% | 90% | 90% | 90% | 80% |
| Cc1cc(OCC(F)(F)F)cc(C)c1C1C(=O)CC(CC(=O)NCc2ccc(C#N)cc2)C1=O (stereo not drawn) [Compound B207] | 80% | 40% | 50% | 0% | 90% | 40% | 60% | 10% |
